Measured values: article PMC5218480 (PLoS ONE, 2017)

Test system: MV-4-11 cells
Assay: Gene expression microarray analysis (Affymetrix PrimeView) and GSEA
Assay type: cell-based, human
Set-up: RFU PODN (11730768_x_at) / Fold change /veh PODN (11730768_x_at) / RFU LINC00158 (11744669_a_at) / Fold change /veh LINC00158 (11744669_a_at) / RFU DUSP10 (11751237_a_at) / Fold change /veh DUSP10 (11751237_a_at) / RFU ID3 (11757404_x_at) / Fold change /veh ID3 (11757404_x_at) / RFU PLEKHG5 (11737974_s_at) / Fold change /veh PLEKHG5 (11737974_s_at) / RFU LRRC4B (11730491_at) / Fold change /veh LRRC4B (11730491_at) / RFU GIMAP4 (11747438_a_at) / Fold change /veh GIMAP4 (11747438_a_at) / RFU KRT8 (11758183_x_at) / Fold change /veh KRT8 (11758183_x_at) / RFU CNN1 (11734310_a_at) / Fold change /veh CNN1 (11734310_a_at) / RFU VPS37D (11726825_at) / Fold change /veh VPS37D (11726825_at) / RFU C10orf10 (11716522_x_at) / Fold change /veh C10orf10 (11716522_x_at) / RFU KIR2DL2 /// KIR2DL4 /// KIR2DL5A /// KIR2DL5B /// KIR2DS1 /// KIR2DS2 /// KIR2DS3 /// KIR2DS4 /// KIR3DL3 /// KIR3DL3 /// KIR3DS1 (11738374_at) / Fold change /veh KIR2DL2 /// KIR2DL4 /// KIR2DL5A /// KIR2DL5B /// KIR2DS1 /// KIR2DS2 /// KIR2DS3 /// KIR2DS4 /// KIR3DL3 /// KIR3DL3 /// KIR3DS1 (11738374_at) / RFU C1QL1 (11718748_at) / Fold change /veh C1QL1 (11718748_at) / RFU TMPRSS4 (11747572_a_at) / Fold change /veh TMPRSS4 (11747572_a_at) / RFU HAMP (11756126_x_at) / Fold change /veh HAMP (11756126_x_at) / RFU RNFT2 (11725882_a_at) / Fold change /veh RNFT2 (11725882_a_at) / RFU NR4A2 (11747474_a_at) / Fold change /veh NR4A2 (11747474_a_at) / RFU ABCC12 (11746883_a_at) / Fold change /veh ABCC12 (11746883_a_at) / RFU TMEM136 (11760407_x_at) / Fold change /veh TMEM136 (11760407_x_at) / RFU CLDN22 /// WWC2 (11732394_at) / Fold change /veh CLDN22 /// WWC2 (11732394_at) / RFU HLA-DPB1 (11760878_x_at) / Fold change /veh HLA-DPB1 (11760878_x_at) / RFU SPINT1 (11716480_a_at) / Fold change /veh SPINT1 (11716480_a_at) / RFU GAP43 (11754022_s_at) / Fold change /veh GAP43 (11754022_s_at) / RFU A4GNT (11735810_at) / Fold change /veh A4GNT (11735810_at) / RFU PRB3 (11715151_x_at) / Fold change /veh PRB3 (11715151_x_at) / RFU TUBB4B (11761932_at) / Fold change /veh TUBB4B (11761932_at) / RFU CAPN14 (11732068_a_at) / Fold change /veh CAPN14 (11732068_a_at) / RFU TMCC2 (11721928_a_at) / Fold change /veh TMCC2 (11721928_a_at) / RFU IRGQ (11745062_a_at) / Fold change /veh IRGQ (11745062_a_at) / RFU FAM174B (11720279_a_at) / Fold change /veh FAM174B (11720279_a_at) / RFU TMPRSS4 (11748680_a_at) / Fold change /veh TMPRSS4 (11748680_a_at) / RFU FAM212B (11763350_a_at) / Fold change /veh FAM212B (11763350_a_at) / RFU PLEKHG5 (11743358_a_at) / Fold change /veh PLEKHG5 (11743358_a_at) / RFU ZSCAN30 (11745921_a_at) / Fold change /veh ZSCAN30 (11745921_a_at) / RFU CMKLR1 (11741424_a_at) / Fold change /veh CMKLR1 (11741424_a_at) / RFU LOC101060620 /// MAPK8IP1 (11723275_at) / Fold change /veh LOC101060620 /// MAPK8IP1 (11723275_at) / RFU SPTSSB (11747773_x_at) / Fold change /veh SPTSSB (11747773_x_at) / RFU PRSS12 (11739890_at) / Fold change /veh PRSS12 (11739890_at) / RFU BIN1 (11741810_x_at) / Fold change /veh BIN1 (11741810_x_at) / RFU WNT11 (11732464_a_at) / Fold change /veh WNT11 (11732464_a_at) / RFU C10orf10 (11716521_a_at) / Fold change /veh C10orf10 (11716521_a_at) / RFU C5orf56 (11738089_at) / Fold change /veh C5orf56 (11738089_at) / RFU CYB561 (11721691_x_at) / Fold change /veh CYB561 (11721691_x_at) / RFU ANKRD19P (11752326_a_at) / Fold change /veh ANKRD19P (11752326_a_at) / RFU OR2T12 /// OR2T33 /// OR2T8 (11738714_s_at) / Fold change /veh OR2T12 /// OR2T33 /// OR2T8 (11738714_s_at) / RFU VCAN (11748164_a_at) / Fold change /veh VCAN (11748164_a_at) / RFU JSRP1 (11732532_at) / Fold change /veh JSRP1 (11732532_at) / RFU KRTAP10-11 (11738290_x_at) / Fold change /veh KRTAP10-11 (11738290_x_at) / RFU MYO3A (11730013_a_at) / Fold change /veh MYO3A (11730013_a_at) / RFU EBF3 (11725865_a_at) / Fold change /veh EBF3 (11725865_a_at) / RFU CAMK2N1 (11719241_x_at) / Fold change /veh CAMK2N1 (11719241_x_at) / RFU C5orf56 (11738088_a_at) / Fold change /veh C5orf56 (11738088_a_at) / RFU OLFML3 (11715873_a_at) / Fold change /veh OLFML3 (11715873_a_at) / RFU LOC100653217 /// NTM (11731650_a_at) / Fold change /veh LOC100653217 /// NTM (11731650_a_at) / RFU MAPK11 (11762145_a_at) / Fold change /veh MAPK11 (11762145_a_at) / RFU FIZ1 (11724087_x_at) / Fold change /veh FIZ1 (11724087_x_at) / RFU OASL (11726364_x_at) / Fold change /veh OASL (11726364_x_at) / RFU SOX15 (11748057_x_at) / Fold change /veh SOX15 (11748057_x_at) / RFU CD79A (11719716_a_at) / Fold change /veh CD79A (11719716_a_at) / RFU HIST1H1D (11736915_at) / Fold change /veh HIST1H1D (11736915_at) / RFU CASKIN2 (11723855_a_at) / Fold change /veh CASKIN2 (11723855_a_at) / RFU LOC730098 (11760151_x_at) / Fold change /veh LOC730098 (11760151_x_at) / RFU OR4N2 (11742367_at) / Fold change /veh OR4N2 (11742367_at) / RFU PRRT2 (11749266_a_at) / Fold change /veh PRRT2 (11749266_a_at) / RFU SNX32 (11753110_a_at) / Fold change /veh SNX32 (11753110_a_at) / RFU CDHR5 (11726645_a_at) / Fold change /veh CDHR5 (11726645_a_at) / RFU RCAN1 (11760418_a_at) / Fold change /veh RCAN1 (11760418_a_at) / RFU FAM167A (11723789_a_at) / Fold change /veh FAM167A (11723789_a_at) / RFU FAM26E (11764081_at) / Fold change /veh FAM26E (11764081_at) / RFU ISYNA1 (11749810_s_at) / Fold change /veh ISYNA1 (11749810_s_at) / RFU ACY1 (11761880_at) / Fold change /veh ACY1 (11761880_at) / RFU 11764098_at / Fold change /veh 11764098_at / RFU SAMD14 (11745864_x_at) / Fold change /veh SAMD14 (11745864_x_at) / RFU NPB (11741838_a_at) / Fold change /veh NPB (11741838_a_at) / RFU TMPRSS6 (11731388_a_at) / Fold change /veh TMPRSS6 (11731388_a_at) / RFU KRTAP10-2 (11738614_at) / Fold change /veh KRTAP10-2 (11738614_at) / RFU ARHGAP8 /// PRR5-ARHGAP8 (11727945_x_at) / Fold change /veh ARHGAP8 /// PRR5-ARHGAP8 (11727945_x_at) / RFU KRTAP5-7 /// NADSYN1 (11734609_at) / Fold change /veh KRTAP5-7 /// NADSYN1 (11734609_at) / RFU RASL12 (11751679_a_at) / Fold change /veh RASL12 (11751679_a_at) / RFU CDKN2B (11736163_a_at) / Fold change /veh CDKN2B (11736163_a_at) / RFU PRF1 (11729649_at) / Fold change /veh PRF1 (11729649_at) / RFU, ZNF638 /// ZNF638-IT1 / Fold change vs veh, ZNF638 /// ZNF638-IT1 / RFU, PANK3 / Fold change vs veh, PANK3 / RFU, SH3YL1 / Fold change vs veh, SH3YL1 / RFU, ZEB2 / Fold change vs veh, ZEB2 / RFU, NRIP1 / Fold change vs veh, NRIP1 / RFU, PTTG1IP / Fold change vs veh, PTTG1IP / RFU, CAPN2 / Fold change vs veh, CAPN2 / RFU, MED14 / Fold change vs veh, MED14 / RFU, SNORA58 / Fold change vs veh, SNORA58 / RFU, C1orf63 / Fold change vs veh, C1orf63 / RFU, LRRFIP1 / Fold change vs veh, LRRFIP1 / RFU, NDUFAF7 / Fold change vs veh, NDUFAF7 / RFU, SLC12A2 / Fold change vs veh, SLC12A2 / RFU, IBTK / Fold change vs veh, IBTK / RFU, ESF1 / Fold change vs veh, ESF1 / Fold change vs veh, TMEM50B / RFU, TAOK1 / Fold change vs veh, TAOK1 / RFU, ACBD3 / Fold change vs veh, ACBD3 / RFU, TMA16 / Fold change vs veh, TMA16 / RFU, RWDD3 / Fold change vs veh, RWDD3 / RFU, BCAT1 / Fold change vs veh, BCAT1 / RFU, EDEM3 / Fold change vs veh, EDEM3 / RFU, TMEM33 / Fold change vs veh, TMEM33 / RFU, WDR75 / Fold change vs veh, WDR75 / RFU, AHCTF1 / Fold change vs veh, AHCTF1 / RFU, TFRC / Fold change vs veh, TFRC / RFU, ZDHHC17 / Fold change vs veh, ZDHHC17 / RFU, NOM1 / Fold change vs veh, NOM1 / RFU, ARL8B / Fold change vs veh, ARL8B / RFU, ZBTB11 / Fold change vs veh, ZBTB11 / RFU, TAMM41 / Fold change vs veh, TAMM41 / RFU, KIAA1704 /// LOC100996395 / Fold change vs veh, KIAA1704 /// LOC100996395 / RFU, ING1 / Fold change vs veh, ING1 / RFU, TRMT61B / Fold change vs veh, TRMT61B / RFU, FUBP3 / Fold change vs veh, FUBP3 / RFU, TP53 / Fold change vs veh, TP53 / RFU, TNKS2 / Fold change vs veh, TNKS2 / RFU, ZFP14 / Fold change vs veh, ZFP14 / RFU, ACTR2 / Fold change vs veh, ACTR2 / RFU, PPP3R1 / Fold change vs veh, PPP3R1 / RFU, PIK3R1 / Fold change vs veh, PIK3R1 / RFU, HNRNPA1 / Fold change vs veh, HNRNPA1 / RFU, RNF170 / Fold change vs veh, RNF170 / RFU, ZNF28 / Fold change vs veh, ZNF28 / RFU, RNGTT / Fold change vs veh, RNGTT / RFU, OGT / Fold change vs veh, OGT / RFU, BRD1 / Fold change vs veh, BRD1 / RFU, MARS / Fold change vs veh, MARS / RFU, ZNF655 / Fold change vs veh, ZNF655 / RFU, FAHD1 / Fold change vs veh, FAHD1 / RFU, BDP1 / Fold change vs veh, BDP1 / RFU, LRRCC1 / Fold change vs veh, LRRCC1 / RFU, ARID1A / Fold change vs veh, ARID1A / RFU, ZNF146 / Fold change vs veh, ZNF146 / RFU, ZNF330 / Fold change vs veh, ZNF330 / RFU, GPN3 / Fold change vs veh, GPN3 / RFU, C9orf123 / Fold change vs veh, C9orf123 / RFU, N4BP2L2 / Fold change vs veh, N4BP2L2 / RFU, ARFIP1 / Fold change vs veh, ARFIP1 / RFU, FAM179B / Fold change vs veh, FAM179B / RFU, BCL10 / Fold change vs veh, BCL10 / RFU, UHRF1BP1L / Fold change vs veh, UHRF1BP1L / RFU, BET1 / Fold change vs veh, BET1 / RFU, CNOT2 / Fold change vs veh, CNOT2 / RFU, ZNF268 / Fold change vs veh, ZNF268 / Fold change vs veh, ZNF507 / RFU, DGCR2 / Fold change vs veh, DGCR2 / RFU, WDSUB1 / Fold change vs veh, WDSUB1 / Fold change vs veh, HSP90B1 /// MIR3652 / RFU, ADSS / Fold change vs veh, ADSS / RFU, GK / Fold change vs veh, GK / RFU, ZNF148 / Fold change vs veh, ZNF148 / RFU, TAF9 / Fold change vs veh, TAF9 / RFU, SLC1A5 / Fold change vs veh, SLC1A5 / RFU, SLMO2 / Fold change vs veh, SLMO2 / RFU, ABCC4 / Fold change vs veh, ABCC4 / RFU, LOC101060439 /// RAP1B / Fold change vs veh, LOC101060439 /// RAP1B / RFU, RFX7 / Fold change vs veh, RFX7 / RFU, GTPBP10 / Fold change vs veh, GTPBP10 / RFU, CNEP1R1 / Fold change vs veh, CNEP1R1 / RFU, BIVM-ERCC5 /// ERCC5 / Fold change vs veh, BIVM-ERCC5 /// ERCC5 / RFU, ILF3 / Fold change vs veh, ILF3 / RFU 11762660_at / Fold change /veh 11762660_at / RFU VCAN (11757783_s_at) / Fold change /veh VCAN (11757783_s_at) / RFU DDX43 (11728927_at) / Fold change /veh DDX43 (11728927_at) / RFU KRT8 (11758188_x_at) / Fold change /veh KRT8 (11758188_x_at) / RFU NKD1 (11759106_at) / Fold change /veh NKD1 (11759106_at) / RFU SRD5A1 (11742802_a_at) / Fold change /veh SRD5A1 (11742802_a_at) / RFU TPSAB1 /// TPSB2 (11721975_s_at) / Fold change /veh TPSAB1 /// TPSB2 (11721975_s_at) / RFU GSTM3 (11746129_a_at) / Fold change /veh GSTM3 (11746129_a_at) / RFU IL23R (11737362_x_at) / Fold change /veh IL23R (11737362_x_at) / RFU TMEM51 (11727254_a_at) / Fold change /veh TMEM51 (11727254_a_at) / RFU PIWIL2 (11732686_x_at) / Fold change /veh PIWIL2 (11732686_x_at) / RFU ORM1 (11744905_x_at) / Fold change /veh ORM1 (11744905_x_at) / RFU CCDC152 (11743942_at) / Fold change /veh CCDC152 (11743942_at) / RFU ECM1 (11717891_a_at) / Fold change /veh ECM1 (11717891_a_at) / RFU IL23R (11748794_a_at) / Fold change /veh IL23R (11748794_a_at) / RFU TNFAIP8L3 (11732012_x_at) / Fold change /veh TNFAIP8L3 (11732012_x_at) / RFU MBOAT4 (11741988_at) / Fold change /veh MBOAT4 (11741988_at) / RFU 11764193_at / Fold change /veh 11764193_at / RFU TMEM53 (11763286_at) / Fold change /veh TMEM53 (11763286_at) / RFU MAGEB2 (11727129_at) / Fold change /veh MAGEB2 (11727129_at) / RFU TMEM200A (11744735_a_at) / Fold change /veh TMEM200A (11744735_a_at) / RFU CCDC152 (11751479_a_at) / Fold change /veh CCDC152 (11751479_a_at) / RFU FAM211A (11726209_a_at) / Fold change /veh FAM211A (11726209_a_at) / RFU RGS16 (11746705_a_at) / Fold change /veh RGS16 (11746705_a_at) / RFU VCAN (11755009_s_at) / Fold change /veh VCAN (11755009_s_at) / RFU RHOB (11743442_s_at) / Fold change /veh RHOB (11743442_s_at) / RFU RGS16 (11720943_a_at) / Fold change /veh RGS16 (11720943_a_at) / RFU RGS16 (11720944_at) / Fold change /veh RGS16 (11720944_at) / RFU, VPS4B / Fold change vs veh, VPS4B / RFU, CREB1 / Fold change vs veh, CREB1 / RFU, DNAJC13 / Fold change vs veh, DNAJC13 / RFU, GNAQ / Fold change vs veh, GNAQ / RFU, CDK5R1 / Fold change vs veh, CDK5R1 / RFU, ZRANB3 / Fold change vs veh, ZRANB3 / RFU, CUL4A / Fold change vs veh, CUL4A / RFU, CCNY / Fold change vs veh, CCNY / RFU, UFL1 / Fold change vs veh, UFL1 / RFU, COG3 / Fold change vs veh, COG3 / RFU, DIAPH2 / Fold change vs veh, DIAPH2 / RFU, SKA2 / Fold change vs veh, SKA2 / RFU, AFF3 / Fold change vs veh, AFF3 / RFU, LMF1 / Fold change vs veh, LMF1 / RFU, IPO11 / Fold change vs veh, IPO11 / RFU, DFFB / Fold change vs veh, DFFB / RFU, FOXP1 / Fold change vs veh, FOXP1 / RFU, CARD8 / Fold change vs veh, CARD8 / RFU, STRN3 / Fold change vs veh, STRN3 / RFU, ADK / Fold change vs veh, ADK / RFU, RASSF2 / Fold change vs veh, RASSF2 / RFU, WIPF1 / Fold change vs veh, WIPF1 / RFU, LARP1B / Fold change vs veh, LARP1B / RFU, RASA1 / Fold change vs veh, RASA1 / RFU, RB1 / Fold change vs veh, RB1 / RFU, PPFIA1 / Fold change vs veh, PPFIA1 / RFU, MAT2A / Fold change vs veh, MAT2A / RFU, CCT5 / Fold change vs veh, CCT5 / RFU, WDR92 / Fold change vs veh, WDR92 / RFU, CUX1 / Fold change vs veh, CUX1 / RFU, TTC7A / Fold change vs veh, TTC7A / RFU, TMEM135 / Fold change vs veh, TMEM135 / RFU, DEPTOR / Fold change vs veh, DEPTOR / RFU, CPM / Fold change vs veh, CPM / RFU, DNAJB6 / Fold change vs veh, DNAJB6 / RFU, CACNA2D3 / Fold change vs veh, CACNA2D3 / RFU, DTX4 / Fold change vs veh, DTX4 / RFU, TFCP2 / Fold change vs veh, TFCP2 / RFU, GMCL1 /// GMCL1P1 / Fold change vs veh, GMCL1 /// GMCL1P1 / RFU, AEBP2 / Fold change vs veh, AEBP2 / RFU, SNHG1 /// SNORD22 /// SNORD25 /// SNORD26 /// SNORD27 /// SNORD28 /// SNORD29 /// SNORD31 / Fold change vs veh, SNHG1 /// SNORD22 /// SNORD25 /// SNORD26 /// SNORD27 /// SNORD28 /// SNORD29 /// SNORD31 / Fold change (Aza/veh), C12orf56 (ProbeSet 11735607_a_at) / Fold change (ACY-1035/veh), C12orf56 (ProbeSet 11735607_a_at) / Fold change (Aza/veh), FGFR1OP (ProbeSet 11751329_s_at) / Fold change (ACY-1035/veh), FGFR1OP (ProbeSet 11751329_s_at) / Fold change (Aza/veh), VPS36 (ProbeSet 11739960_a_at) / Fold change (ACY-1035/veh), VPS36 (ProbeSet 11739960_a_at) / RFU SYPL1 (11715823_x_at) / Fold change /veh SYPL1 (11715823_x_at) / RFU IGFBP7 (11715501_s_at) / Fold change /veh IGFBP7 (11715501_s_at) / RFU REEP3 (11722064_at) / Fold change /veh REEP3 (11722064_at) / RFU IGLL1 (11728026_x_at) / Fold change /veh IGLL1 (11728026_x_at): dose or concentration left out as unconfirmed
Conditions: ProbeSet 11721521_at; LIST B

Nc1ncn([C@@H]2O[C@H](CO)[C@@H](O)[C@H]2O)c(=O)n1 [azacitidine]
Fold change vs veh, ZDHHC17: 0.88
